Assay results reported in US10729740B2, “Lytic-peptide-Her2/neu (Human Epidermal growth factor Receptor 2) ligand conjugates and methods of use” (Esperance Pharmaceuticals, Inc., priority 2010, dated 2020).
Ends that are not written are not given here.

What was measured:
[1] = test system: Her2 receptor positive SKOV-3 cancer cells; test: In vitro cytotoxicity, MTT assay, 48 h, SKOV-3
Procedure: (§1) 68) to the antibody at the C-terminus by NRVRRS (SEQ. ID NO. 57) linker). Cytotoxicity was compared to a naked antibody (antibody without a lytic peptide) in Her-2 receptor positive cells (SKBR-3 and SKOV-3, human breast and ovarian cancer cells, respectively) and Her-2 receptor negative breast cancer cells (MDA-MB-231).
(§2) Cells were prepared in 96 well plates using 2,000 cells/well and were allowed to attach for 48 hours. […] All data were processed and analyzed using Graph Pad Prizm 4™ software (Graph Pad Prizm, Inc).

[2] = test system: Her2 receptor positive SKBR-3 cancer cells; test: In vitro cytotoxicity, MTT assay, 48 h, SKBR-3
Procedure: as §1, §2

[3] = test system: Her2 receptor negative MDA-MB-231 cancer cells; test: In vitro cytotoxicity, MTT assay, 48 h, MDA-MB-231
Procedure: as §1, §2

KFAKFAKKFAKFAKKFAK [Phor-18, KFAKFAK KFAKFAK KFAK]
very minimal non-specific cytotoxicity: cytotoxicity to SKOV-3 cells (in words) [1] | cytotoxicity to SKBR-3 cells (in words) [2] | cytotoxicity to MDA-MB-231 cells (in words) [3]
